These are literature values, as cited in patent US20040101539A1, “Aqueous dispersion of low-melting organic solids” (priority 2002, published 2004).

For this data set the following is noted: at 25° C.

Molecules are shown by their SMILES.

Consider `CCCCCCCCn1sc(Cl)c(Cl)c1=O` [DCOIT, 4,5-dichloro-2-octyl-3(2H)-isothiazolone], for which the water solubility is recorded as 2 ppm.
